Data: ChEMBL document CHEMBL1134415, “Potent and selective ET-A antagonists. 2. Discovery and evaluation of potent and water soluble N-(6-(2-(aryloxy)ethoxy)-4-pyrimidinyl)sulfonamide derivatives” (J Med Chem, 2001)

Assays:
Endothelin-1 receptor [1] = target: T1, Endothelin-1 receptor (Sus scrofa, UniProt Q29010); assay: Ability to inhibit [125I]ET1 binding to endothelin A receptor in porcine aortic membrane; assay type: cell membranes
T1 sequence (Q29010 whole entry): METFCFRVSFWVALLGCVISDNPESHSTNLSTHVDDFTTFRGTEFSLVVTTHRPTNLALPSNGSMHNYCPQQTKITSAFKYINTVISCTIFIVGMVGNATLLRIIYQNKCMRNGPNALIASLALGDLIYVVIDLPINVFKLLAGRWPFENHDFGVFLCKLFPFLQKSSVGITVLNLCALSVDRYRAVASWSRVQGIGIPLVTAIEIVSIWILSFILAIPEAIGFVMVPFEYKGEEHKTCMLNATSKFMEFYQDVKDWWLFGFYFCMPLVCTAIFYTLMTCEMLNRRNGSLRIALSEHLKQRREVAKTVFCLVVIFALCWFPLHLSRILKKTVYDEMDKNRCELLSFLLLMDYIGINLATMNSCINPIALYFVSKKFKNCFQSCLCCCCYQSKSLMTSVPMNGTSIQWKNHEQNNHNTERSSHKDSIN

Endothelin-1 receptor [2] = target: T2, Endothelin-1 receptor (Homo sapiens, UniProt P25101); assay: Ability to inhibit [125I]ET1 binding to human cloned endothelin A receptor expressed on CHO cells; assay type: cell-based
T2 sequence (P25101 whole entry): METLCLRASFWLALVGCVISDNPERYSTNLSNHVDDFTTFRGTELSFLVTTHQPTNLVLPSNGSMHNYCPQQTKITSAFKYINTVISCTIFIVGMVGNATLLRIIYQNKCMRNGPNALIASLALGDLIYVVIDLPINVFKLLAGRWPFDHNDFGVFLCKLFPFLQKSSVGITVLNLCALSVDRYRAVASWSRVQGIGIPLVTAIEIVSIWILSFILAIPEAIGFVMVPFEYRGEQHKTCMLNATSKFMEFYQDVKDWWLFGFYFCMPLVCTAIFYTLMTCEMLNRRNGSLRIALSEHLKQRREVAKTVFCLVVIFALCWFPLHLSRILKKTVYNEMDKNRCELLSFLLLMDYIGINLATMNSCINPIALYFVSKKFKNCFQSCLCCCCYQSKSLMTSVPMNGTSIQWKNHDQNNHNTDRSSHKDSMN

[3] = Ability to inhibit specific binding of [125I]- -ET-1 to rat A 10 cells which express endothelin A receptor
[4] = target: T3, Endothelin receptor type B (Homo sapiens, UniProt P24530); assay: Ability to inhibit [125I]-ET-1 binding to human cloned ETB receptors expressed on CHO cells; assay type: cell-based
T3 sequence (P24530 whole entry): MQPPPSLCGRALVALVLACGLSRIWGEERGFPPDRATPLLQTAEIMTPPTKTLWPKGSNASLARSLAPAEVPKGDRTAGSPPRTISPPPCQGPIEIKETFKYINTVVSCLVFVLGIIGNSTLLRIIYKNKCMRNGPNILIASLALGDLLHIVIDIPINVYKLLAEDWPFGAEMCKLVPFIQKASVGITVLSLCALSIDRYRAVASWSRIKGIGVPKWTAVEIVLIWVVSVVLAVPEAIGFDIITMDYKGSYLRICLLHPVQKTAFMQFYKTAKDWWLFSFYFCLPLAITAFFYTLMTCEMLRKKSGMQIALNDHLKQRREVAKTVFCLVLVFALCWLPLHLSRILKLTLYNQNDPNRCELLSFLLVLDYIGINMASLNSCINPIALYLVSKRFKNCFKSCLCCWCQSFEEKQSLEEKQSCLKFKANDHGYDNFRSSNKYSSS

[5] = target: T3, Endothelin receptor type B; assay: Ability to inhibit specific binding of [125I]- -ET-1 to human GH cells which express endothelin B receptor; assay type: cell-based

SMILES	IC50 (Endothelin-1 receptor [1])	further results
CSc1cnc(OCCOc2ncnc(NS(=O)(=O)c3ccc(C(C)(C)C)cc3)c2-c2ccc(CO)cc2)nc1	0.04 nM	–
CSc1cnc(OCCOc2ncnc(NS(=O)(=O)c3ccc(C(C)(C)C)cc3)c2-c2ccc(C)cc2)nc1	< 0.001 nM	–
Cc1ccc(-c2c(NS(=O)(=O)c3ccc(C(C)(C)C)cc3)ncnc2OCCOc2ncc(CO)cn2)cc1	–	IC50 [5]: 31 nM
CSc1cnc(OCCOc2ncnc(NS(=O)(=O)c3ccc(C(C)(C)C)cc3)c2-c2ccc(C(=O)O)cc2)nc1	> 10 nM	–

The next lines start with results.

IC50 (Endothelin-1 receptor [1])	SMILES	further results
< 0.001 nM	Cc1ccc(-c2c(NS(=O)(=O)c3ccc(C(C)(C)C)cc3)ncnc2OCCOc2ncc(Br)cn2)cc1	Ki (Endothelin-1 receptor [2]): 0.0042 nM; IC50 [3]: 0.039 nM; Ki [4]: 130 nM
1.4 nM	Cc1ccc(-c2c(NS(=O)(=O)c3ccc(C(C)(C)C(=O)O)cc3)ncnc2OCCOc2ncc(Br)cn2)cc1	–
0.04 nM	CC(C)(C)c1ccc(S(=O)(=O)Nc2ncnc(OCCOc3ncc(Br)cn3)c2-c2ccc(CO)cc2)cc1	–
> 10 nM	Cc1ccc(-c2c(NS(=O)(=O)c3ccc(C(C)(C)C)cc3)ncnc2OCCOc2ncc(C(=O)O)cn2)cc1	–
